The values below come from US12667626B2, “Compositions and methods relating to erythrocytes with adhered particles” (PRESIDENT AND FELLOWS OF HARVARD COLLEGE, priority 2019, dated 2026).

The subject of series [1] is B16F10-Luc melanoma lung metastasis. Kind of series: Efficacy in early-stage B16F10-Luc lung metastasis model. It counts as in vivo, mice. On the procedure:
Efficacy studies on in vivo experimental lung metastasis model. Experimental lung metastasis model was established by intravenous injection of 1×10^5 B16F10-Luc cells in to the tail vein of female C57BL/6 mice. Efficacy for the treatment groups was evaluated in an early stage and late stage metastatic models. Mice were randomized based on the bioluminescence intensity in the lungs one day before the first injection of therapies. A control (Saline) group and three treatment groups (DOX-NPs, RBC-NPs, free DOX) at a dose of 5.2 mg/kg were evaluated for their efficacy (n=7 for all groups, unless otherwise specified).
For the early-stage metastatic model, treatments were given starting the day after the inoculation. Four injections were given over six days, i.e. day 1, 3, 5 and 7 after inoculation. On days 6, 8, 10, 12, 18, 23, 31 after inoculation, the mice were imaged using in vivo imaging (Perkin Elmer IVIS Spectrum™, MA, USA). Briefly, mice were injected intraperitoneally with 150 μL of 30 mg/mL Xenolight™-D-luciferin in saline. […] The average radiance (bioluminescence intensity) was evaluated using the software Living System®. The animals were further monitored for their survival.

Series [2] can be described thus: Chemokine gradient assay (CXCL10 in lung and blood). It counts as in vivo, mice. Conditions: 5× higher dose, free form. On the procedure: The chemokine gradient assay was conducted on the early-stage lung metastasis model as follows. To evaluate chemokine gradient restoration capability of the therapy, early-stage spontaneous lung metastasis model was established as described in the previous context. One saline and three treatment groups (5× free CXCL10 chemokine, ImmunoBait with anti-ICAM-1, and erythrocyte hitchhiked ImmunoBait with anti-ICAM-1) were included into the study. Treatments were given starting one week after surgery. Two injection sets were given on day 7 and day 10 after surgery. (n=4-5 for each time point for each group). Mice were sacrificed at 20 mins and 6 h after the second injection, blood was collected by cardiac puncture and lungs were excised. Chemokine content in lungs and blood were quantified as described above.
The chemokine gradient assay was conducted on the early-stage lung metastasis model as follows. To evaluate chemokine gradient restoration capability of the therapy, early-stage spontaneous lung metastasis model was established as described in the previous context. One saline and three treatment groups (5× free CXCL10 chemokine containing 12.5 μg CXCL10, ImmunoBait with anti-ICAM-1 containing 2.5 μg CXCL10, and erythrocyte hitchhiked ImmunoBait with anti-ICAM-1 containing 2.5 μg CXCL10) were included into the study. […] Chemokine content in lungs and blood were quantified as described above.

As to `COc1cccc2c1C(=O)c1c(O)c3c(c(O)c1C2=O)C[C@@](O)(C(=O)CO)C[C@@H]3O[C@H]1C[C@H](N)[C@H](O)[C@H](C)O1` [free drug, doxorubicin], the “lung metastasis burden inhibited” value in series [1] (day 16, early-stage model) is listed as 94.2%. The molecule further registered a median survival time in series [1] (early-stage model, control 29 days) of 32 days. Further, the body weight change result in series [1] (treatment period, 5.2 mg/kg) is “sharp decline in the body weight”.
With CXCL10 [free chemokine], in series [2], the chemokine gradient established entry is recorded as “weak chemokine gradient”.
